No end group written: not given here.
Test system: kidney graft
Test: Cold ischemia/reperfusion injury during kidney transplantation
Assay type: in vivo, rat
Conditions: preliminary
Text: FIG. 17: Preliminary data on cold ischemia/reperfusion injury during kidney transplantation. Brain death and prolonged cold ischemia are major contributors to the poorer long-term outcome of transplants from deceased donor kidney transplants, with an even higher impact if expanded criteria donors (‘marginal organs’) are used. Targeting ischemia-reperfusion (IR) injury-related intragraft inflammation is an attractive concept to improve the outcome of those grafts. (A) Workflow of cold ischemia/reperfusion during kidney transplantation in rat. After a 24 h cold ischemia, the kidney graft was transplanted orthotopically into male LEW recipients using standard microsurgical techniques. Peptides were injected immediately after reperfusion in a single i.v injection at 1 mg/kg. Three days after transplantation, grafts were harvested for RT-PCR analysis (n=3). (B) Total RNA was reverse transcribed into cDNA and subjected to quantitative real-time RT-PCR utilizing the GENEAMP® 5700 Sequence Detection System (Applied Biosystems, Weiterstadt, Germany). The TAQMAN®-PCR reactions for ICAM-1, IFN-γ, TNF-α, interleukin (IL)-6 and bcl-2 (synthesized by Metabion, Martinsried, Germany) were performed in a final volume of 25 μl.

[1] = 1 mg/kg single i.v. after reperfusion, kidney graft 3 days after transplantation, RT-PCR

## GRKKRRQRRRPPQKKSRKEKKQTGSGPLG-NH2 [Tat-DAXXp, GRKKRRQRRRPPQ-KKSRKEKKQTGSGPLG-NH2]
[1]
  mRNA expression of ICAM-1: reduction in mRNA expression
  mRNA expression of IFN-γ: reduction in mRNA expression
1 mg/kg, renal transplantation model (Rat)
  protection from ischemia-reperfusion injuries: able to protect from ischemia-reperfusion injuries

From US9814758B2, “Inhibitors of apoptosis and uses thereof” (CENTRE NATIONAL DE LA RECHERCHE SCIENTIFIQUE-CNRS, priority 2010, dated 2017)
